Experimental data reported in patent US20250236599A1, “LIPID NANOPARTICLES FOR OLIGONUCLEOTIDE DELIVERY” (ZIPHIUS NV, priority 2021, published 2025).

What was measured:
[1] = saRNA loading / encapsulation efficiency, Quant-IT RiboGreen assay; format: physicochemical; conditions: LNP lipid:DOPE:Cholesterol:DMG-PEG 35:20:43.5:1.5, firefly luciferase saRNA
Method: The saRNA loading in LNP formulations was quantified using a Quant-IT RiboGreen assay (Thermo Fisher Scientific, Waltham, Massachusetts, USA) as previously described. 14 samples were diluted tenfold in 1x Tris HCL-EDTA (TE) buffer (10 mM Tris-HCL, 1 mM EDTA, pH 7.5) with or without 2% (v/v) Triton X-100 (Sigma-Aldrich, Saint Louis, Missouri, USA). Standard solutions were also prepared in 1xTE with or without 2% (v/v) Triton X-100 to account for any variation in fluorescence. The assay was performed according to the manufacturer's protocol. Samples were loaded on a black 96-well plate and analysed for fluorescence on a microplate reader (Tecan Infinite® 200 PRO) at an excitation of 485 nm and emission at 528 nm. Encapsulation efficiency was calculated between 80-100%.

[2] = LNP particle size, polydispersity index and charge by Zeta Sizer; format: physicochemical; conditions: LNP lipid:DOPE:Cholesterol:DMG-PEG 35:20:43.5:1.5, firefly luciferase saRNA; for Polydispersity Index (PI) / Z-average (nm): N/P approx. 40/1
Method: Cationic lipids, DOPE, Cholesterol and DMG-PEG lipid were solubilized in ethanol or DMSO at a molar ratio of 35:20:43.5:1.5 and a concentration of 100:25:20:25 μg/μL for C12-200 or 170:25:20:25 μg/μL for the comparator lipids. Lipid nanoparticles (LNP) were prepared by targeting an N/P ratio of approximately 40/1 with saRNA. Briefly, the firefly luciferase saRNA of approximately 9659 nucleotides was diluted to 0.5 mg/mL in 5 mM citrate buffer, pH 4.5. Microfluidic mixer (Ignite from Precision Nanosystems, California, USA) was used to mix the lipid solution with the saRNA aqueous solution at a ratio of about 1:3 (vol/vol) with total flow rates above 10 ml/min. The ethanol was then removed, and the external buffer replaced with 10 mM TRIS-HCL, PH 7.4, by dialysis. Finally, the lipid nanoparticles were filtered through a 0.2 μm pore sterile filter. Lipid nanoparticle particle size was 50-150 nm diameter and polydispersity index (PI) of 0.1-0.4 as determined by Zeta Sizer (Malvern Panalytical, UK). The charge of the formulation was also measured by Zeta Sizer and ranged between 20 to −20 mV.

[3] = system: expression of the luciferase saRNA; assay: In vivo bioluminescent imaging after intramuscular injection of LNP-formulated luciferase saRNA; conditions: 1 μg LNP-formulated luciferase saRNA intramuscularly, female SWISS mice
Method: (§1) Female SWISS mice (6 weeks old) were purchased from Janvier Laboratories (Paris, France) and kept in individually ventilated cages with access to food and water ad libitum. Mice were anesthetized with isoflurane (Zoetis, Louvain-La-Neuve, Belgium) (5% for induction and 2% for maintenance) and intramuscularly injected with a total of 1 μg in 100 μL Tris-HCL (50 μL per leg) LNP-formulated luciferase saRNA (for each group n=7). The expression of the luciferase induced bioluminescence was measured via non-invasive In vivo bioluminescent imaging (In vivo Imaging System (IVIS) Lumina III, Perkin Elmer, Waltham, Massachusetts, USA), 10 minutes after subcutaneous injection of […] of D-luciferin (GoldBio, Saint Louis, Missouri, USA, #LUCK-1G) were measured in day 0 (before injection), day 1, day 3, day 5, day 7, day 10, day 15 and day 20.

[4] = Weight evolution of the animals following administration of LNPs; format: in vivo; conditions: female SWISS mice
Method: as §1

[5] = Day 1, 1 μg LNP-formulated saRNA intramuscularly
[6] = Day 3, 1 μg LNP-formulated saRNA intramuscularly
[7] = Day 5, 1 μg LNP-formulated saRNA intramuscularly
[8] = Day 7, 1 μg LNP-formulated saRNA intramuscularly
[9] = Day 10, 1 μg LNP-formulated saRNA intramuscularly
[10] = Day 15, 1 μg LNP-formulated saRNA intramuscularly
[11] = Day 20, 1 μg LNP-formulated saRNA intramuscularly

Row | Compound | Encapsulation (%) [1] [%] | Zetapotential (mV) [2] [mV] | Polydispersity Index (PI) [2] | Z-average (nm) [2] [nm] | Bioluminescence expression of LNPs ([3]; Day 1) | Bioluminescence expression of LNPs ([3]; Day 3) | Bioluminescence expression of LNPs ([3]; Day 5) | Bioluminescence expression of LNPs ([3]; Day 7) | Bioluminescence expression of LNPs ([3]; Day 10) | Bioluminescence expression of LNPs ([3]; Day 15) | Bioluminescence expression of LNPs ([3]; Day 20) | Weight ([4]; Day 0) [g] | Weight [4, 5] [g] | Weight [4, 6] [g] | Weight [4, 7] [g] | Weight [4, 8] [g] | Weight [4, 9] [g] | Weight [4, 10] [g] | Weight [4, 11] [g]
1 | CCCCCCC(CCCC)C(=O)OCCCCN(CCCCOC(=O)C(CCCC)CCCCCC)CCN1CCN(CCN(CCCCOC(=O)C(CCCC)CCCCCC)CCCCOC(=O)C(CCCC)CCCCCC)CC1 (stereo not shown) [Compound 9-33, ((piperazine-1,4-diylbis(ethane-2,1-diyl))bis(azanetriyl))tetrakis(butane-4,1-diyl) tetrakis(2-butyloctanoate)] | 92.26 | −13.70 | 0.22 | 86.24 | 3.79E+07 | 6.90E+08 | 1.45E+09 | 1.02E+09 | 5.76E+06 | 5.96E+05 | 1.21E+05 | 26.83 | 25.36 | 27.37 | 26.96 | 27.29 | 27.20 | 28.79 | 29.60
2 | CCCCCCC(CCCC)C(=O)OCCCCCCN(CCCCCCOC(=O)C(CCCC)CCCCCC)CCN1CCN(CCN(CCCCCCOC(=O)C(CCCC)CCCCCC)CCCCCCOC(=O)C(CCCC)CCCCCC)CC1 (stereo not shown) [Compound 9-34, ((piperazine-1,4-diylbis(ethane-2,1-diyl))bis(azanetriyl))tetrakis(hexane-6,1-diyl) tetrakis(2-butyloctanoate)] | 94.93 | −7.92 | 0.16 | 71.78 | 4.79E+07 | 7.26E+08 | 7.42E+08 | 9.12E+08 | 4.70E+07 | 1.43E+05 | 3.37E+04 | 27.77 | 26.14 | 28.33 | 28.51 | 28.49 | 28.97 | 30.24 | 31.51
3 | CCCCCCCCC(CCCCCC)C(=O)OCCCCN(CCCCOC(=O)C(CCCCCC)CCCCCCCC)CCN1CCN(CCN(CCCCOC(=O)C(CCCCCC)CCCCCCCC)CCCCOC(=O)C(CCCCCC)CCCCCCCC)CC1 (stereo not shown) [Compound 9-36, ((piperazine-1,4-diylbis(ethane-2,1-diyl))bis(azanetriyl))tetrakis(butane-4,1-diyl) tetrakis(2-hexyldecanoate)] | 96.25 | −10.52 | 0.20 | 105.70 | 4.28E+06 | 1.92E+08 | 8.44E+08 | 6.10E+08 | 5.56E+06 | 2.57E+05 | 1.16E+05 | 29.09 | 29.49 | 31.49 | 30.09 | 30.36 | 30.56 | 31.33 | 32.30
4 | CCCCCCCCC(CCCCCC)C(=O)OCCCCCCN(CCCCCCOC(=O)C(CCCCCC)CCCCCCCC)CCN1CCN(CCN(CCCCCCOC(=O)C(CCCCCC)CCCCCCCC)CCCCCCOC(=O)C(CCCCCC)CCCCCCCC)CC1 (stereo not shown) [Compound 9-37, ((piperazine-1,4-diylbis(ethane-2,1-diyl))bis(azanetriyl)) tetrakis(hexane-6,1-diyl) tetrakis(2-hexyldecanoate)] | 92.32 | −9.93 | 0.27 | 89.43 | 1.07E+07 | 2.06E+08 | 4.17E+08 | 3.54E+08 | 2.11E+06 | 7.50E+04 | 2.65E+04 | 28.21 | 26.73 | 28.81 | 28.84 | 28.84 | 29.36 | 30.63 | 31.61
